Assay results published in US20260265246A1 (ICAHN SCHOOL OF MEDICINE AT MOUNT SINAI, priority 2021, published 2026).
Like-named read-outs stand apart in the source and are kept apart here.

Tests used:
5HT2A receptor [1] = biological target: T1, 5HT2A receptor (Homo sapiens, UniProt P28223); experiment: cell-based; set-up: expressed in transfected cells; host or cells: HEK293T cells, transient co-transfection; conditions: BRET2 Gαq dissociation; for Emax: HEK-293T, normalized to 5-HT
5HT2A receptor [2] = biological target: T1, 5HT2A receptor; experiment: cell-based; set-up: expressed in transfected cells; host or cells: HEK293T cells, transient co-transfection; conditions: BRET1 beta-arrestin2 recruitment; for Emax: HEK-293T, normalized to 5-HT, read-out: 5HT2A β-Arr Emax (%)
5HT2A receptor [3] = biological target: T1, 5HT2A receptor; experiment: biochemical; format: binding; set-up: expressed in transfected cells; crude membranes
[4] = HEK293T cells, read-out: 5HT2A Gq EC50
[5] = HEK293T cells, read-out: 5HT2A Gq Emax (%)
[6] = secondary radioligand binding, Ki from IC50 by Cheng-Prusoff, read-out: 5HT2A Ki
[7] = 5HT2A β-Arr EC50 (nM), HEK293T cells
[8] = 5HT2A Ki (nM), secondary radioligand binding, Ki from IC50 by Cheng-Prusoff

T1 sequence (P28223 whole entry): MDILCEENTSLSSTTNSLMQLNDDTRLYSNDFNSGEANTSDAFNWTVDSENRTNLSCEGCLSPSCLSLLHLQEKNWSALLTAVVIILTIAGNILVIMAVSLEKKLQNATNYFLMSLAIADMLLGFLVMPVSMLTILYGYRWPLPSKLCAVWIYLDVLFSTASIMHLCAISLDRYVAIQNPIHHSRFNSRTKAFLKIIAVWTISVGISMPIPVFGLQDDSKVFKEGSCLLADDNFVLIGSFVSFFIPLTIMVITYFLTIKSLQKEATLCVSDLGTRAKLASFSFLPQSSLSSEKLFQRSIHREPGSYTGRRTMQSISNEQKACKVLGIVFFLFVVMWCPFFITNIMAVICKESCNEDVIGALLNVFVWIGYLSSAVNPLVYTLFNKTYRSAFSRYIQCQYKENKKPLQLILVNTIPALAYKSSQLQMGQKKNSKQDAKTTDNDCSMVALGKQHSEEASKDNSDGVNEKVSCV

SMILES	EC50 (5HT2A receptor [1]; [4])	Emax (5HT2A receptor [1]; [5])	EC50 (5HT2A receptor [2]; HEK293T cells, read-out: 5HT2A β-Arr EC50)	Emax (5HT2A receptor [2]; HEK293T cells)	Ki (5HT2A receptor [3]; [6])	EC50 (5HT2A receptor [2]; [7])	Ki (5HT2A receptor [3]; [8])	EC50 (5HT2A receptor [1]; 5HTA Gq EC50 (nM), HEK293T)	Emax (5HT2A receptor [1]; HEK293T, read-out: 5HTA Gq Emax (%))	EC50 (5HT2A receptor [2]; 5HT2A β-Arr EC50 (nM), HEK293T)	Emax (5HT2A receptor [2]; HEK293T)	Ki (5HT2A receptor [3]; 5HT2A Ki (nM), secondary binding assay, Cheng-Prusoff)
CCN1CCC=C(c2c[nH]c3c(Cl)cccc23)C1 [Example 126, 7-chloro-3-(1-ethyl-1,2,5,6-tetrahydropyridin-3-yl)-1H-indole]	40.2 nM	96.6%	74.9 nM	62.9%	42.6 nM	–	–	–	–	–	–	–
CN1CCC=C(c2c[nH]c3c(Cl)cc(F)cc23)C1 [Example 115, 7-chloro-5-fluoro-3-(1-methyl-1,2,5,6-tetrahydropyridin-3-yl)-1H-indole]	51.1 nM	114%	–	59.7%	20.8 nM	576 nM	–	–	–	–	–	–
Fc1cccc2[nH]nc(C3=CCCNC3)c12 [Example 81, 4-fluoro-3-(1,2,5,6-tetrahydropyridin-3-yl)-1H-indazole]	26.5 nM	92.3%	–	75.7%	–	211 nM	348 nM	–	–	–	–	–
C=CCN1CCC=C(c2n[nH]c3c(Cl)cccc23)C1 [Example 124, 3-(1-allyl-1,2,5,6-tetrahydropyridin-3-yl)-7-chloro-1H-indazole]	49.6 nM	64.9%	–	35.3%	–	1010 nM	159 nM	–	–	–	–	–
CN1CCC=C(c2n[nH]c3ccc(F)cc23)C1 [Example 102, 5-fluoro-3-(1-methyl-1,2,5,6-tetrahydropyridin-3-yl)-1H-indazole]	9 nM	84.5%	–	79.8%	–	129 nM	246 nM	–	–	–	–	–
C1=C(c2c[nH]c3cccnc23)CNCC1 [Example 138, 3-(1,2,5,6-tetrahydropyridin-3-yl)-1H-pyrrolo[3,2-b]pyridine]	–	–	–	–	–	–	–	118 nM	79%	1420 nM	101%	147 nM
N#Cc1cccc2[nH]nc(C3=CCCNC3)c12 [Example 82, 3-(1,2,5,6-tetrahydropyridin-3-yl)-1H-indazole-4-carbonitrile]	12 nM	95.9%	–	87.9%	–	562 nM	153 nM	–	–	–	–	–
